From patent publication US10597388B2, “Pyridazinone herbicides” (FMC CORPORATION, priority 2014, dated 2020)

What was measured:
Experiment in all cases: Test D controlled growth environment herbicide test, pre- and postemergence
Assay type in all cases: in vivo
[1] = tested on: oat, wild (wild oat, Avena fatua)
Outline: (§1)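 Species sown in silt loam and sprayed preemergence, or grown in peat-based medium to 2–18 cm (1- to 4-leaf stage) and sprayed postemergence, with compounds in non-phytotoxic solvent plus surfactant. Visual injury scored versus controls after 14–21 d in a controlled environment, 0 (no effect) to 100 (complete control).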

[2] = tested on: wheat, spring (spring wheat, Triticum aestivum)
Outline: as §1

[3] = tested on: chickweed (common chickweed, Stellaria media)
Outline: as §1

[4] = tested on: bluegrass (annual bluegrass, Poa annua)
Outline: as §1

[5] = tested on: lambsquarters (Chenopodium album)
Outline: as §1

[6] = tested on: barley, winter (winter barley, Hordeum vulgare)
Outline: as §1

[7] = tested on: field violet (Viola arvensis)
Outline: as §1

[8] = tested on: radish, wild (wild radish, Raphanus raphanistrum)
Outline: as §1

[9] = tested on: barley, spring (spring barley, Hordeum vulgare)
Outline: as §1

[10] = tested on: field poppy (Papaver rhoeas)
Outline: as §1

[11] = tested on: canarygrass (Phalaris minor)
Outline: as §1

[12] = tested on: Russian thistle (Salsola kali)
Outline: as §1

[13] = tested on: wheat, winter (winter wheat, Triticum aestivum)
Outline: as §1

[14] = Postemergence, 31 g ai/ha, scale 0 to 100 (0 no effect, 100 complete control)
[15] = Postemergence, 125 g ai/ha, visual rating on scale 0 (no effect) to 100 (complete control), 14 to 21 d
[16] = Postemergence, 250 g ai/ha, scale 0 to 100 (0 no effect, 100 complete control)
[17] = Preemergence, 62 g ai/ha, scale 0 to 100 (0 no effect, 100 complete control)
[18] = Preemergence, 125 g ai/ha, scale 0 to 100 (0 no effect, 100 complete control)
[19] = Preemergence, 250 g ai/ha, scale 0 to 100, 0 no effect, 100 complete control
[20] = postemergence, 62 g ai/ha, scale 0 to 100, 0 no effect, 100 complete control

SMILES: Cc1ccc2ccccc2c1-c1c(OC(=O)OC(C)C)c(C)nn(C)c1=O [Compound 72]
- Oat, Wild plant response rating [1, 14]: 85
- Plant response rating, Oat, Wild [1, 15]: 95
- Plant response rating, Oat, Wild [1, 16]: 98
- Plant response rating (scale of 0 to 100), Oat, Wild ([1]; Preemergence, 31 g ai/ha): 65
- Plant response rating, Oat, Wild [1, 17]: 75
- Plant response rating, Oat, Wild [1, 18]: 85
- Plant response rating, Oat, Wild [1, 19]: 95
- Plant response rating, Oat, Wild [1, 20]: 85
- Wheat, Spring plant response rating [2, 14]: 40
- Plant response rating, Wheat, Spring [2, 15]: 60
- Plant response rating, Wheat, Spring [2, 16]: 70
- Plant response rating (scale of 0 to 100), Wheat, Spring ([2]; Preemergence, 31 g ai/ha): 0
- Plant response rating, Wheat, Spring [2, 17]: 35
- Plant response rating, Wheat, Spring [2, 18]: 65
- Plant response rating, Wheat, Spring [2, 19]: 80
- Plant response rating, Wheat, Spring [2, 20]: 50
- Chickweed plant response rating [3, 14]: 98
- Plant response rating, Chickweed [3, 15]: 100
- Plant response rating, Chickweed [3, 16]: 100
- Plant response rating (scale of 0 to 100), Chickweed ([3]; Preemergence, 31 g ai/ha): 70
- Plant response rating, Chickweed [3, 17]: 100
- Plant response rating, Chickweed [3, 18]: 100
- Plant response rating, Chickweed [3, 19]: 100
- Plant response rating, Chickweed [3, 20]: 100
- Bluegrass plant response rating [4, 14]: 20
- Plant response rating, Bluegrass [4, 15]: 40
- Plant response rating, Bluegrass [4, 16]: 55
- Plant response rating (scale of 0 to 100), Bluegrass ([4]; Preemergence, 31 g ai/ha): 10
- Plant response rating, Bluegrass [4, 17]: 25
- Plant response rating, Bluegrass [4, 18]: 25
- Plant response rating, Bluegrass [4, 19]: 50
- Plant response rating, Bluegrass [4, 20]: 35
- Lambsquarters plant response rating [5, 14]: 80
- Plant response rating, Lambsquarters [5, 15]: 90
- Plant response rating, Lambsquarters [5, 16]: 100
- Plant response rating (scale of 0 to 100), Lambsquarters ([5]; Preemergence, 31 g ai/ha): 35
- Plant response rating, Lambsquarters [5, 17]: 100
- Plant response rating, Lambsquarters [5, 18]: 95
- Plant response rating, Lambsquarters [5, 19]: 95
- Plant response rating, Lambsquarters [5, 20]: 95
- Barley, Winter plant response rating [6, 14]: 10
- Plant response rating, Barley, Winter [6, 15]: 30
- Plant response rating, Barley, Winter [6, 16]: 35
- Plant response rating (scale of 0 to 100), Barley, Winter ([6]; Preemergence, 31 g ai/ha): 5
- Plant response rating, Barley, Winter [6, 17]: 25
- Plant response rating, Barley, Winter [6, 18]: 50
- Plant response rating, Barley, Winter [6, 19]: 75
- Plant response rating, Barley, Winter [6, 20]: 20
- Field Violet plant response rating [7, 14]: 90
- Plant response rating, Field Violet [7, 15]: 95
- Plant response rating, Field Violet [7, 16]: 95
- Plant response rating (scale of 0 to 100), Field Violet ([7]; Preemergence, 31 g ai/ha): 10
- Plant response rating, Field Violet [7, 17]: 75
- Plant response rating, Field Violet [7, 18]: 75
- Plant response rating, Field Violet [7, 19]: 95
- Plant response rating, Field Violet [7, 20]: 95
- Radish, Wild plant response rating [8, 14]: 75
- Plant response rating, Radish, Wild [8, 15]: 90
- Plant response rating, Radish, Wild [8, 16]: 95
- Plant response rating (scale of 0 to 100), Radish, Wild ([8]; Preemergence, 31 g ai/ha): 0
- Plant response rating, Radish, Wild [8, 17]: 0
- Plant response rating, Radish, Wild [8, 18]: 50
- Plant response rating, Radish, Wild [8, 19]: 50
- Plant response rating, Radish, Wild [8, 20]: 80
- Barley, Spring plant response rating [9, 14]: 5
- Plant response rating, Barley, Spring [9, 15]: 10
- Plant response rating, Barley, Spring [9, 16]: 15
- Plant response rating (scale of 0 to 100), Barley, Spring ([9]; Preemergence, 31 g ai/ha): 0
- Plant response rating, Barley, Spring [9, 17]: 0
- Plant response rating, Barley, Spring [9, 18]: 0
- Plant response rating, Barley, Spring [9, 19]: 60
- Plant response rating, Barley, Spring [9, 20]: 5
- Field Poppy plant response rating [10, 14]: 80
- Plant response rating, Field Poppy [10, 15]: 100
- Plant response rating, Field Poppy [10, 16]: 100
- Plant response rating (scale of 0 to 100), Field Poppy ([10]; Preemergence, 31 g ai/ha): 100
- Plant response rating, Field Poppy [10, 17]: 100
- Plant response rating, Field Poppy [10, 18]: 100
- Plant response rating, Field Poppy [10, 19]: 100
- Plant response rating, Field Poppy [10, 20]: 90
- Canarygrass plant response rating [11, 14]: 40
- Plant response rating, Canarygrass [11, 15]: 80
- Plant response rating, Canarygrass [11, 16]: 85
- Plant response rating (scale of 0 to 100), Canarygrass ([11]; Preemergence, 31 g ai/ha): 0
- Plant response rating, Canarygrass [11, 17]: 80
- Plant response rating, Canarygrass [11, 18]: 85
- Plant response rating, Canarygrass [11, 19]: 95
- Plant response rating, Canarygrass [11, 20]: 50
- Russian Thistle plant response rating [12, 14]: 70
- Plant response rating, Russian Thistle [12, 15]: 80
- Plant response rating, Russian Thistle [12, 16]: 85
- Plant response rating (scale of 0 to 100), Russian Thistle ([12]; Preemergence, 31 g ai/ha): 0
- Plant response rating, Russian Thistle [12, 17]: 10
- Plant response rating, Russian Thistle [12, 18]: 15
- Plant response rating, Russian Thistle [12, 19]: 25
- Plant response rating, Russian Thistle [12, 20]: 75
- Wheat, Winter plant response rating [13, 14]: 25
- Plant response rating, Wheat, Winter [13, 15]: 50
- Plant response rating, Wheat, Winter [13, 16]: 60
- Plant response rating (scale of 0 to 100), Wheat, Winter ([13]; Preemergence, 31 g ai/ha): 5
- Plant response rating, Wheat, Winter [13, 17]: 10
- Plant response rating, Wheat, Winter [13, 18]: 25
- Plant response rating, Wheat, Winter [13, 19]: 45
- Plant response rating, Wheat, Winter [13, 20]: 35
